pIC50: −log10 of the molar value.

The nature of series [1]: Metabolic stability in human hepatocytes assessed as half life at 10 uM measured after 120 mins by LC-MS analysis. It counts as ADME, cell-based, Hepatocyte.
Series [2] can be described thus: Metabolic stability in mouse liver microsomes assessed as half life at 1.25 uM preincubated for 5 mins followed by NADPH addition measured upto 120 mins by LC-MS/MS analysis. The series is classed as ADME, Microsome. The following applies: time < 125 min.
Series [3] is described as follows: Metabolic stability in human hepatocytes assessed as hepatic clearance at 10 uM measured after 120 mins by LC-MS analysis. It counts as ADME, cell-based, Hepatocyte.
For series [4], the target named is T1, Nucleotide-binding oligomerization domain-containing protein 1 (Mus musculus) (UniProt Q8BHB0).
T1 sequence (whole entry): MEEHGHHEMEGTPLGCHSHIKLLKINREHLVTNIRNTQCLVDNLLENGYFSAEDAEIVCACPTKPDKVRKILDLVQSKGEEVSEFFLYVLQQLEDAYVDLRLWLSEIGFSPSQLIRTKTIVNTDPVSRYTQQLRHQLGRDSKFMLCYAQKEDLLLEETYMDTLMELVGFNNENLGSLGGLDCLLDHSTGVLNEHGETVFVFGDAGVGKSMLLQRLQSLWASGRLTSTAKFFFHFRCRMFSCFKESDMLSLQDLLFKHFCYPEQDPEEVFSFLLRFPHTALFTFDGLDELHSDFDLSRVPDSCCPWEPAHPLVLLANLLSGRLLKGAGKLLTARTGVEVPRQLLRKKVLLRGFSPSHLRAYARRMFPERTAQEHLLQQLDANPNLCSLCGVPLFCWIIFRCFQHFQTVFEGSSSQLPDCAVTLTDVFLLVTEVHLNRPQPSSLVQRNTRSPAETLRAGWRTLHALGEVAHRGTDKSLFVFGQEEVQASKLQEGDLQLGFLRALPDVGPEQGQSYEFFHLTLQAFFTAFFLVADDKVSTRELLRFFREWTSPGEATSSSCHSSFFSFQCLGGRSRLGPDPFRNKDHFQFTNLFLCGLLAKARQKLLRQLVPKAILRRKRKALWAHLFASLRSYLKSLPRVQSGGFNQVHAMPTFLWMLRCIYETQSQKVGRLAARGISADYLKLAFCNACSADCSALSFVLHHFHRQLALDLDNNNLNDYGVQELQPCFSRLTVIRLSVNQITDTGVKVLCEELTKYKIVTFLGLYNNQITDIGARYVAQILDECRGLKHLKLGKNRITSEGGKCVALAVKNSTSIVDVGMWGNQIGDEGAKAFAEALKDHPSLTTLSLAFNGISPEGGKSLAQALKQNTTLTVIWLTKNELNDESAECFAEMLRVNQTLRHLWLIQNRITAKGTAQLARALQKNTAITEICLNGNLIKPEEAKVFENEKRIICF
Nature of the series: Antagonist activity at mouse NOD1 expressed in HEK-Blue cells assessed as decrease in SEAP secretion at 1 uM incubated for 3 hrs followed by C12-iE-DAP stimulation for 20 hrs by spectrophotometry relative to control. The series is classed as cell-based. The following applies: HEK-Blue mNOD1, filed as antagonist, time 23.0 hrs.

In series [5] the target is T2, Nucleotide-binding oligomerization domain-containing protein 1 (Mus musculus, UniProt Q8BHB0).
T2 sequence (Q8BHB0 whole entry): T1 sequence (whole entry)
Nature of the series: Antagonist activity at mouse NOD1 expressed in HEK-Blue cells assessed as decrease in SEAP secretion incubated for 3 hrs followed by C12-iE-DAP stimulation for 20 hrs by spectrophotometry. It counts as cell-based, HEK-Blue mNOD1.

The nature of series [6]: Metabolic stability in mouse liver microsomes assessed as intrinsic clearance at 1.25 uM preincubated for 5 mins followed by NADPH addition measured upto 120 mins by LC-MS/MS analysis. It counts as ADME, Microsome. The following applies: time < 125 min, read-out: CLH.
The nature of series [7]: Metabolic stability in mouse hepatocytes assessed as half life at 10 uM measured after 120 mins by LC-MS analysis. It counts as ADME, cell-based, Hepatocyte.
The target of series [8] is T3, Nucleotide-binding oligomerization domain-containing protein 1 (Homo sapiens, UniProt Q9Y239).
T3 sequence (Q9Y239 whole entry): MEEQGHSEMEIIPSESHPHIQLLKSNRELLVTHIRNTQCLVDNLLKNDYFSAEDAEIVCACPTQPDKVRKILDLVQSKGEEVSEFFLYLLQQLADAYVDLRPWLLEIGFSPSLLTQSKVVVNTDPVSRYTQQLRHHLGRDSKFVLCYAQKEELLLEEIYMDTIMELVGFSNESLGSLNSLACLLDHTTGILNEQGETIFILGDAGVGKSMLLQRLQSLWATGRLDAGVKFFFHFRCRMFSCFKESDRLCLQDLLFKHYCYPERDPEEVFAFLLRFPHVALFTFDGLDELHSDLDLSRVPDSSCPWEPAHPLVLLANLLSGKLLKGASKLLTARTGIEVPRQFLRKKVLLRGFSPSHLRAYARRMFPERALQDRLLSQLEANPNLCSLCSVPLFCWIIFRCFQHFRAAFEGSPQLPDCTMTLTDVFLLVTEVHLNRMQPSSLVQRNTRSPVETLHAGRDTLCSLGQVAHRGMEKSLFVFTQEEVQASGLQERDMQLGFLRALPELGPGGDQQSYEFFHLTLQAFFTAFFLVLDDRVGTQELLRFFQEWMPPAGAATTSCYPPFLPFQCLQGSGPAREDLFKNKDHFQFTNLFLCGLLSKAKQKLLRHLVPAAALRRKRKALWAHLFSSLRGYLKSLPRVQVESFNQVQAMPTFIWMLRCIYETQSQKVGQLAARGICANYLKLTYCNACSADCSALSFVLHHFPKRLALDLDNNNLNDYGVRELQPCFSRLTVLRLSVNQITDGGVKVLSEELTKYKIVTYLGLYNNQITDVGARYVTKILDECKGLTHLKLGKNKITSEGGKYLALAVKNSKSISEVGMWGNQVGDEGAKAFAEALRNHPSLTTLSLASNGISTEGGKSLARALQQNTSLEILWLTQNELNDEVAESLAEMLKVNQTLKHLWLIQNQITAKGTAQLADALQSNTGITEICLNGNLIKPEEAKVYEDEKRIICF
Nature of the series: Antagonist activity at human NOD1 expressed in HEK-Blue cells assessed as decrease in SEAP secretion incubated for 3 hrs followed by C12-iE-DAP stimulation for 20 hrs by spectrophotometry. The series is classed as cell-based, HEK-Blue hNOD1.

Series [9] in a line: Metabolic stability in human liver microsomes assessed as intrinsic clearance at 1.25 uM preincubated for 5 mins followed by NADPH addition measured upto 120 mins by LC-MS/MS analysis. It counts as ADME, Microsome. The following applies: time < 125 min, read-out: CLH.
Series [10] is described as follows: Metabolic stability in mouse liver microsomes assessed as hepatic clearance at 1.25 uM preincubated for 5 mins followed by NADPH addition measured upto 120 mins by LC-MS/MS analysis. The series is classed as ADME, Microsome. The following applies: time < 125 min.
Series [11] in a line: Metabolic stability in human liver microsomes assessed as half life at 1.25 uM preincubated for 5 mins followed by NADPH addition measured upto 120 mins by LC-MS/MS analysis. It counts as ADME, Microsome. The following applies: time < 125 min.
Series [12] in a line: Metabolic stability in human hepatocytes assessed as intrinsic clearance measured per million cells at 10 uM measured after 120 mins by LC-MS analysis. It counts as ADME, cell-based, Hepatocyte. To be noted: read-out: CLH.
The nature of series [13]: Metabolic stability in mouse hepatocytes assessed as intrinsic clearance measured per million cells at 10 uM measured after 120 mins by LC-MS analysis. The series is classed as ADME, cell-based, Hepatocyte. The following applies: 2 h.
The nature of series [14]: Metabolic stability in human liver microsomes assessed as hepatic clearance at 1.25 uM preincubated for 5 mins followed by NADPH addition measured upto 120 mins by LC-MS/MS analysis. It counts as ADME, Microsome. The following applies: time < 125 min.
For series [15], the target named is T4, Nucleotide-binding oligomerization domain-containing protein 2 (Homo sapiens, UniProt Q9HC29). As to the kind of experiment: Inhibition of human NOD2 at 1 uM relative to control.
The target in series [16] is T1, Nucleotide-binding oligomerization domain-containing protein 1 (Mus musculus). Nature of the series: Antagonist activity at mouse NOD1 expressed in HEK-Blue cells assessed as decrease in SEAP secretion at 5 uM incubated for 3 hrs followed by C12-iE-DAP stimulation for 20 hrs by spectrophotometry relative to control. It counts as cell-based. To be noted: HEK-Blue mNOD1, filed as antagonist, time 23.0 hrs.

The target of series [17] is T4, Nucleotide-binding oligomerization domain-containing protein 2. Nature of the series: Antagonist activity at human NOD2 expressed in HEK293 cells assessed as decrease in MDP-stimulated IL-8 release incubated for 24 hrs by fluorescence based assay. The series is classed as cell-based.

T4 sequence (Q9HC29 whole entry, the tested form may be a part): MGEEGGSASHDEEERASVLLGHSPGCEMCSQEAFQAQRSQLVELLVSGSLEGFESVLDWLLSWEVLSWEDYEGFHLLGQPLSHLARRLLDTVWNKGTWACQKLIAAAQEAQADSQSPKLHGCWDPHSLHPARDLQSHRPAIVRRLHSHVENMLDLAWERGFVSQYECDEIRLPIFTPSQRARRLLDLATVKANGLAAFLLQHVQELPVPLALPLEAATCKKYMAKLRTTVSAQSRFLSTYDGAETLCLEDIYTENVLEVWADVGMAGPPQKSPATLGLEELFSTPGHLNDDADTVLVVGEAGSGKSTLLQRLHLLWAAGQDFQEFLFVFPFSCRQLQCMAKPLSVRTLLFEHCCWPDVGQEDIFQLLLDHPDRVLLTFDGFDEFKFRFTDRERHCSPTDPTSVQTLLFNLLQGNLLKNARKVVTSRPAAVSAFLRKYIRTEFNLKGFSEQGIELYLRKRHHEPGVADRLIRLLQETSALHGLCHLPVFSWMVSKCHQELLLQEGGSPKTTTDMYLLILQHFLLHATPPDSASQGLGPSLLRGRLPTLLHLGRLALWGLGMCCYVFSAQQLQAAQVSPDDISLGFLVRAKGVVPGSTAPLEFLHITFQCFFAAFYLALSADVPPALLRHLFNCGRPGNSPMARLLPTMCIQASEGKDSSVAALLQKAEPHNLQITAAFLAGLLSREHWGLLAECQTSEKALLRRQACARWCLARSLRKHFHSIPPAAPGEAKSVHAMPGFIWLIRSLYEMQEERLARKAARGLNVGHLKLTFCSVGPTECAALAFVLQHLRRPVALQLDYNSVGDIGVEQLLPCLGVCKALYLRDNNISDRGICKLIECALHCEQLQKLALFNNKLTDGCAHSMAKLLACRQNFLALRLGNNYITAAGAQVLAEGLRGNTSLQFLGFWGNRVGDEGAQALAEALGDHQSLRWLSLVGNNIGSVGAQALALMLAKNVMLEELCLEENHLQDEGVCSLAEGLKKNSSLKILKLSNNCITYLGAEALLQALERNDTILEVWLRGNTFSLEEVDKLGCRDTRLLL

Consider `O=c1c2ccncc2nc(Cl)n1-c1ccc(Cl)c(NS(=O)(=O)c2ccccc2F)c1`, for which the half-life at 10 µM in [1] was 11.6 min; in series [7] it was 2.3 min. Besides, the half-life at 1.25 µM in series [2] and in series [11] was > 186 min each time. Also, in [3], the CLhep predicted at 10 µM was 1.12 L/h/kg. Besides, the inhibition in [4] amounted to 83.9%. For the same compound, the pIC50 in [5] was 6.46; in series [8], 8.39. In addition, the microsomal CLint at 1.25 µM in series [6] and in series [9] was < 7.4 µL/min/mg each time. For the same compound, the CLhep predicted at 1.25 µM in series [10] was < 1.33 L/h/kg; in series [14], < 0.366 L/h/kg. Moreover, the hepatocyte CLint at 10 µM in [12] came out at 59.5 µL/min/1e6 cells. Besides, in series [13], the CLH is 307.2 µL/min.

Take `Cc1nc2ccc(Cl)cc2c(=O)n1-c1ccc(Cl)c(NS(=O)(=O)c2ccccc2F)c1`: the inhibition was < 10% in [15] and 49.4% in series [16]. In addition, the results for the pIC50 in series [5] and in series [17] were 5.16 and < 4.70, respectively.

(Values after ChEMBL document CHEMBL6074678, “Selectively Antagonizing the NOD1-Mediated Inflammatory Signaling Pathway Mitigates the Gastric Inflammation Induced by Helicobacter pylori Infection” (J Med Chem, 2024).)
